Assay results taken from publication PMC11748363, “Antimicrobial and Antiproliferative Properties of 2‐Phenyl‐N‐(Pyridin‐2‐yl)acetamides” (Chemical Biology & Drug Design, 2025).
Values after ≈ are worked out from the molar mass of the structure shown. Like-named read-outs stand apart in the source and are kept apart here.

What was measured:
[1] = tested on: Mycobacterium tuberculosis H37Ra; assay: Antimycobacterial microdilution broth MIC (resazurin), Mtb H37Ra; assay type: cell-based; conditions: for MIC: Mycobacterium tuberculosis, H37RA, read-out: MIC Mtb H37Ra; for SI (selectivity index): SI = HepG2 IC50 (μM)/MIC MtbH37Ra (μM), calculated for compounds with MIC ≤ 31.25 μg/mL
[2] = tested on: Mycolicibacterium smegmatis DSM 43465; assay: Antimycobacterial microdilution broth MIC (resazurin), M. smegmatis; assay type: cell-based; conditions: DSM43465, read-out: MIC M. smegmatis
[3] = tested on: Mycolicibacterium aurum DSM 43999; assay: Antimycobacterial microdilution broth MIC (resazurin), M. aurum; assay type: cell-based; conditions: DSM43999, read-out: MIC M. aurum
[4] = tested on: Mycobacterium tuberculosis H37Rv; assay: Microplate Alamar Blue Assay MIC, Mtb H37Rv; assay type: cell-based; conditions: Mycobacterium tuberculosis, H37RV
[5] = tested on: M. kansasii CNCTC My 235/80; assay: Microplate Alamar Blue Assay MIC, M. kansasii; assay type: cell-based; conditions: for MIC: Mycobacterium kansasii
[6] = tested on: M. avium ssp. avium CNCTC My 80/72; assay: Microplate Alamar Blue Assay MIC, M. avium; assay type: cell-based; conditions: for MIC: Mycobacterium avium
HepG2 cell line = assay: Cytotoxicity CellTiter 96, HepG2; assay type: cell-based, human; conditions: Homo sapiens, HepG2, 24 h, 24 h incubation; ^c compound precipitated in the testing medium; ^d over the limit of tested concentrations
Description: The cytotoxicity of final compounds was determined in human hepatocellular carcinoma cell line HepG2.
Cytotoxicity determination
Human hepatocellular liver carcinoma cell line HepG2 purchased from Health Protection Agency Culture Collections (ECACC, Salisbury, UK) was cultured in MEM (Minimum Essentials Eagle Medium, Sigma–Aldrich) supplemented with 10% fetal bovine serum (PAA Laboratories, Pasching, Austria), 1% L-glutamine solution (Sigma–Aldrich) and non-essential amino acid solution (Sigma–Aldrich) in a humidified atmosphere containing 5% CO2 at 37 °C. For subculturing, the cells were harvested after trypsin/EDTA (Sigma–Aldrich) treatment at 37 °C. To evaluate cytotoxicity, the cells treated with the tested substances were used as experimental groups whereas untreated HepG2 cells served as controls. The cells were seeded in density 10,000 cells per well in a 96 well plate. The next day the cells were treated with each of the tested substances dissolved in DMSO. The tested substances were
in triplicates according to their solubility. Simultaneously, the controls representing 100% cell viability, 0% cell viability (the cells treated with 10% DMSO), no cell control and vehiculum controls were also
the reagent from the kit CellTiter 96 AQueous One Solution Cell Proliferation Assay (CellTiter 96; PROMEGA, Fitchburg, USA) was added. After 2h incubation at 37 °C, absorbance of samples was recorded at 490 nm (TECAN, Infinita M200, Austria). A standard toxicological parameter IC50 was calculated by nonlinear regression from a semilogarithmic plot of incubation concentration versus percentage of absorbance relative to untre ated controls using GraphPad Prism 8 software.

[7] = tested on: Staphylococcus aureus CCM 4223, ATCC 29213; assay: Antibacterial microdilution broth MIC, SA; assay type: cell-based; conditions: for MIC: Staphylococcus aureus
[8] = tested on: Staphylococcus aureus subsp. aureus CCM 4750, ATCC 43300 (MRSA); assay: Antibacterial microdilution broth MIC, MRSA; assay type: cell-based; conditions: for MIC: Staphylococcus aureus
[9] = tested on: Staphylococcus epidermidis CCM 4418, ATCC 12228; assay: Antibacterial microdilution broth MIC, SE; assay type: cell-based
[10] = tested on: Enterococcus faecalis CCM 4224, ATCC 29212; assay: Antibacterial microdilution broth MIC, EF; assay type: cell-based
[11] = tested on: Escherichia coli CCM 3954, ATCC 25922; assay: Antibacterial microdilution broth MIC, EC; assay type: cell-based
[12] = tested on: Acinetobacter baumannii DSM 30007, ATCC 19606; assay: Antibacterial microdilution broth MIC, ACI; assay type: cell-based
[13] = tested on: Pseudomonas aeruginosa CCM 3955, ATCC 27853; assay: Antibacterial microdilution broth MIC, PA; assay type: cell-based
panel of bacteria = assay: Antibacterial screening, whole panel; assay type: cell-based; conditions: whole bacterial panel
panel of fungi = assay: Antifungal screening, whole panel; assay type: cell-based; conditions: whole fungal panel
Description: The antifungal activity was evaluated by
spectrophotometric visual detection** spectrophotometric detection**
Candida tropicalis 1 1 2 >16
Aspergillus fumigatus 4 4 0.25 1
Aspergillus flavus CCM 4 4 2 >16
interdigitale CCM 1 1 1 >16
control. […] Measured on a […]

[14] = tested on: Candida albicans CCM 8320, ATCC 24433; assay: Antifungal microdilution broth MIC, CA
[15] = tested on: Candida krusei CCM 8271, ATCC 6258; assay: Antifungal microdilution broth MIC, CK; conditions: Pichia kudriavzevii
[16] = tested on: Candida parapsilosis CCM 8260, ATCC 22019; assay: Antifungal microdilution broth MIC, CP; conditions: Lodderomyces parapsilosis
[17] = tested on: Candida tropicalis CCM 8264, ATCC 750; assay: Antifungal microdilution broth MIC, CT
[18] = tested on: Aspergillus fumigatus ATCC 204305; assay: Antifungal microdilution broth MIC, AF
[19] = tested on: Lichtheimia corymbifera CCM 8077; assay: Antifungal microdilution broth MIC, LC
[20] = tested on: Trichophyton interdigitale CCM 8377, ATCC 9533; assay: Antifungal microdilution broth MIC, TI; conditions: for MIC: Trichophyton interdigitale
[21] = tested on: Aspergillus flavus CCM 8363; assay: Antifungal microdilution broth MIC, AFla
[22] = tested on: Klebsiella pneumoniae CCM 4415, ATCC 10031; assay: Antibacterial microdilution broth MIC, KP
[23] = ATCC204305, 24 h, read-out: MIC AF 24h
[24] = ATCC204305, 48 h, read-out: MIC AF 48h
[25] = CCM8077, 24 h, read-out: MIC LC 24h
[26] = CCM8077, 48 h, read-out: MIC LC 48h
[27] = CCM8363, 24 h, read-out: MIC AFla 24h
[28] = CCM8363, 48 h, read-out: MIC AFla 48h

O=C(Cc1ccc(C(F)(F)F)cc1)Nc1cccc(Cl)n1 [Compound 30]
MIC ([1]; Calculated from MIC (μg/mL)): 24.8 µM
MIC [1]: 7.81 µg/mL
SI (selectivity index) [1]: 3.7
MIC [2]: > 500 µg/mL
MIC [3]: > 500 µg/mL
MIC [4]: 6.25 µg/mL (≈ 19.9 µM)
MIC [5]: > 100 µg/mL
MIC M. avium [6]: active
MIC [6]: 6.25 µg/mL (≈ 19.9 µM)
IC50 (HepG2 cell line): 92.6 µM
MIC ([7]; 24 h, read-out: MIC SA 24h): > 500 µM
MIC ([7]; 48 h, read-out: MIC SA 48h): > 500 µM
MIC ([8]; 24 h, read-out: MIC MRSA 24h): > 500 µM
MIC ([8]; 48 h, read-out: MIC MRSA 48h): > 500 µM
MIC ([9]; 24 h, read-out: MIC SE 24h): > 500 µM
MIC ([9]; 48 h, read-out: MIC SE 48h): > 500 µM
MIC ([10]; 24 h, read-out: MIC EF 24h): > 500 µM
MIC ([10]; 48 h, read-out: MIC EF 48h): > 500 µM
MIC ([11]; 24 h, read-out: MIC EC 24h): > 500 µM
MIC ([11]; 48 h, read-out: MIC EC 48h): > 500 µM
MIC ([12]; 24 h, read-out: MIC ACI 24h): > 500 µM
MIC ([12]; 48 h, read-out: MIC ACI 48h): > 500 µM
MIC ([13]; 24 h, read-out: MIC PA 24h): > 500 µM
MIC ([13]; 48 h, read-out: MIC PA 48h): > 500 µM
Antibacterial activity (panel of bacteria): None
Antifungal activity (panel of fungi): None
MIC ([14]; 24 h, read-out: MIC CA 24h): > 500 µM
MIC ([14]; 48 h, read-out: MIC CA 48h): > 500 µM
MIC ([15]; 24 h, read-out: MIC CK 24h): > 500 µM
MIC ([15]; 48 h, read-out: MIC CK 48h): > 500 µM
MIC ([16]; 24 h, read-out: MIC CP 24h): > 500 µM
MIC ([16]; 48 h, read-out: MIC CP 48h): > 500 µM
MIC ([17]; 24 h, read-out: MIC CT 24h): > 500 µM
MIC ([17]; 48 h, read-out: MIC CT 48h): > 500 µM
MIC [18, 23]: > 500 µM
MIC [18, 24]: > 500 µM
MIC [19, 25]: > 500 µM
MIC [19, 26]: > 500 µM
MIC ([20]; 72 h, read-out: MIC TI 72h): 500 µM (≈ 157 µg/mL)
MIC ([20]; 120 h, read-out: MIC TI 120h): 500 µM (≈ 157 µg/mL)
MIC [21, 27]: > 500 µM
MIC [21, 28]: > 500 µM
MIC KP 24h [22]: > 500 µM
MIC KP 48h [22]: > 500 µM

O=C(Cc1ccc(Cl)cc1)Nc1ccc(Cl)cn1 [Compound 20]
MIC ([1]; Calculated from MIC (μg/mL)): 27.8 µM
MIC [1]: 7.81 µg/mL
SI (selectivity index) [1]: 1.7
MIC [2]: 500 µg/mL (≈ 1780 µM)
MIC [3]: 500 µg/mL (≈ 1780 µM)
MIC [4]: 6.25 µg/mL (≈ 22.2 µM)
MIC [5]: > 100 µg/mL
MIC [6]: > 100 µg/mL
IC50 (HepG2 cell line): 48.5 µM
MIC ([7]; 24 h, read-out: MIC SA 24h): > 500 µM
MIC ([7]; 48 h, read-out: MIC SA 48h): > 500 µM
MIC ([8]; 24 h, read-out: MIC MRSA 24h): > 500 µM
MIC ([8]; 48 h, read-out: MIC MRSA 48h): > 500 µM
MIC ([9]; 24 h, read-out: MIC SE 24h): > 500 µM
MIC ([9]; 48 h, read-out: MIC SE 48h): > 500 µM
MIC ([10]; 24 h, read-out: MIC EF 24h): > 500 µM
MIC ([10]; 48 h, read-out: MIC EF 48h): > 500 µM
MIC ([11]; 24 h, read-out: MIC EC 24h): > 500 µM
MIC ([11]; 48 h, read-out: MIC EC 48h): > 500 µM
MIC ([12]; 24 h, read-out: MIC ACI 24h): > 500 µM
MIC ([12]; 48 h, read-out: MIC ACI 48h): > 500 µM
MIC ([13]; 24 h, read-out: MIC PA 24h): > 500 µM
MIC ([13]; 48 h, read-out: MIC PA 48h): > 500 µM
Antibacterial activity (panel of bacteria): None
Antifungal activity (panel of fungi): None
MIC ([14]; 24 h, read-out: MIC CA 24h): > 500 µM
MIC ([14]; 48 h, read-out: MIC CA 48h): > 500 µM
MIC ([15]; 24 h, read-out: MIC CK 24h): > 500 µM
MIC ([15]; 48 h, read-out: MIC CK 48h): > 500 µM
MIC ([16]; 24 h, read-out: MIC CP 24h): > 500 µM
MIC ([16]; 48 h, read-out: MIC CP 48h): > 500 µM
MIC ([17]; 24 h, read-out: MIC CT 24h): > 500 µM
MIC ([17]; 48 h, read-out: MIC CT 48h): > 500 µM
MIC [18, 23]: > 500 µM
MIC [18, 24]: > 500 µM
MIC [19, 25]: > 500 µM
MIC [19, 26]: > 500 µM
MIC ([20]; 72 h, read-out: MIC TI 72h): > 500 µM
MIC ([20]; 120 h, read-out: MIC TI 120h): > 500 µM
MIC [21, 27]: > 500 µM
MIC [21, 28]: > 500 µM
MIC KP 24h [22]: > 500 µM
MIC KP 48h [22]: > 500 µM

O=C(Cc1ccc(Cl)cc1)Nc1cccc(Cl)n1 [Compound 21]
MIC ([1]; Calculated from MIC (μg/mL)): 27.8 µM
MIC [1]: 7.81 µg/mL
SI (selectivity index) [1]: 2.9
MIC [2]: 15.6 µg/mL (≈ 55.6 µM)
MIC [3]: 31.2 µg/mL (≈ 111 µM)
MIC [4]: 6.25 µg/mL (≈ 22.2 µM)
MIC M. kansasii [5]: additional activity
MIC [5]: 25 µg/mL (≈ 88.9 µM)
MIC M. avium [6]: additional activity
MIC [6]: 6.25 µg/mL (≈ 22.2 µM)
IC50 (HepG2 cell line): 81.5 µM
MIC ([7]; 24 h, read-out: MIC SA 24h): 250 µM (≈ 70.3 µg/mL)
MIC ([7]; 48 h, read-out: MIC SA 48h): > 500 µM
Antibacterial activity on SA ([7]; Table 2): 250 μM on SA, 250 μM on MRSA
MIC ([8]; 24 h, read-out: MIC MRSA 24h): 250 µM (≈ 70.3 µg/mL)
MIC ([8]; 48 h, read-out: MIC MRSA 48h): 500 µM (≈ 141 µg/mL)
Antibacterial activity on MRSA ([8]; Table 2): 250 μM on SA, 250 μM on MRSA
MIC ([9]; 24 h, read-out: MIC SE 24h): > 500 µM
MIC ([9]; 48 h, read-out: MIC SE 48h): > 500 µM
MIC ([10]; 24 h, read-out: MIC EF 24h): > 500 µM
MIC ([10]; 48 h, read-out: MIC EF 48h): > 500 µM
MIC ([11]; 24 h, read-out: MIC EC 24h): > 500 µM
MIC ([11]; 48 h, read-out: MIC EC 48h): > 500 µM
MIC ([12]; 24 h, read-out: MIC ACI 24h): > 500 µM
MIC ([12]; 48 h, read-out: MIC ACI 48h): > 500 µM
MIC ([13]; 24 h, read-out: MIC PA 24h): > 500 µM
MIC ([13]; 48 h, read-out: MIC PA 48h): > 500 µM
MIC ([14]; 24 h, read-out: MIC CA 24h): > 500 µM
MIC ([14]; 48 h, read-out: MIC CA 48h): > 500 µM
MIC ([15]; 24 h, read-out: MIC CK 24h): > 500 µM
MIC ([15]; 48 h, read-out: MIC CK 48h): > 500 µM
MIC ([16]; 24 h, read-out: MIC CP 24h): > 500 µM
MIC ([16]; 48 h, read-out: MIC CP 48h): > 500 µM
MIC ([17]; 24 h, read-out: MIC CT 24h): > 500 µM
MIC ([17]; 48 h, read-out: MIC CT 48h): > 500 µM
MIC [18, 23]: > 500 µM
MIC [18, 24]: > 500 µM
MIC [19, 25]: > 500 µM
MIC [19, 26]: > 500 µM
Antifungal activity on TI ([20]; Table 2): 62.5 μM on TI
MIC ([20]; 72 h, read-out: MIC TI 72h): 62.5 µM (≈ 17.6 µg/mL)
MIC ([20]; 120 h, read-out: MIC TI 120h): 125 µM (≈ 35.1 µg/mL)
MIC [21, 27]: > 500 µM
MIC [21, 28]: > 500 µM
MIC KP 24h [22]: > 500 µM
MIC KP 48h [22]: > 500 µM
